# Experimental data as given in patent US7153876B2, “Malonamid and malonamic ester derivatives with antithrombotic activity, their preparation, and their use” (Sanofi-Aventis Deutschland GmbH, priority 2000, dated 2006).
# Molecular target: T1, human factor VIIa and TF (factor VIIa/TF) (Homo sapiens, UniProt P08709)
# T1 construct: human factor VIIa and TF (5 nM and 10 nM, respective final concentration)
# Assay: Factor VIIa (FVIIa) chromogenic assay
# Assay type: biochemical
# Settings: inhibition constant towards factor VIIa/TF activity; chromogenic substrate S-2288 500 μM; 25° C.; 15 minute preincubation; factor VIIa 5 nM, TF 10 nM
# Description: The ability of compounds of formula I to inhibit factor VIIa or other enzymes like factor Xa, thrombin, plasmin, or trypsin can be assessed by determining the concentration of the compound of formula I that inhibits enzyme activity by 50%, i.e., the IC50 value, which is related to the inhibition constant Ki. Purified enzymes are used in chromogenic assays. The concentration of inhibitor that causes a 50% decrease in the rate of substrate hydrolysis is determined by linear regression after plotting the relative rates of hydrolysis (compared to the uninhibited control) versus the log of the concentration of the compound of formula I. For calculating the inhibition constant Ki, the IC50 value is corrected for competition with substrate using the formula Ki=IC50/[1+(substrate concentration/Km)] wherein Km is the Michaelis-Menten constant (Chen and Prusoff, Biochem. Pharmacol. 22 (1973), 3099-3108; I. H. Segal, Enzyme Kinetics, 1975, John Wiley & Sons, New York, 100–125; which are incorporated herein by reference). Factor VIIa (FVIIa) Assay:
# The inhibitory activity (expressed as inhibition constant Ki (FVIIa)) of compounds of formula I towards factor VIIa/TF activity was determined using a chromogenic assay essentially as described previously (J. A. Ostrem et al., Biochemistry 37 (1998) 1053–1059, which is incorporated herein by reference). Kinetic assays were conducted at 25° C. in half-area microtiter plates (Costar Corp., Cambridge, Mass.) using a kinetic plate reader (Molecular Devices Spectramax 250). A typical assay consisted of 25 μl human factor VIIa and TF (5 nM and 10 nM, respective final concentration) combined with 40 μl of inhibitor dilutions in 10% DMSO/TBS-PEG buffer (50 mM Tris, 15 mM NaCl, 5 mM CaCl2, 0.05% PEG 8000, pH 8.15). Following a 15 minute preincubation period, the assay was initiated by the addition of 35 μl of the chromogenic substrate S-2288 (D-IIe-Pro-Arg-p-nitroanilide, Pharmacia Hepar Inc., 500 μM final concentration).
# T1 sequence (P08709 61-212 limits assumed): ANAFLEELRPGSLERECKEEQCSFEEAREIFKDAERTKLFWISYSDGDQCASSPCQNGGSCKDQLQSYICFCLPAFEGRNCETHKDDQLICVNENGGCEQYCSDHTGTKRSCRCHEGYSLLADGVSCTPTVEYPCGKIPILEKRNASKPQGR
# T1 sequence (P08709 213-466 limits assumed): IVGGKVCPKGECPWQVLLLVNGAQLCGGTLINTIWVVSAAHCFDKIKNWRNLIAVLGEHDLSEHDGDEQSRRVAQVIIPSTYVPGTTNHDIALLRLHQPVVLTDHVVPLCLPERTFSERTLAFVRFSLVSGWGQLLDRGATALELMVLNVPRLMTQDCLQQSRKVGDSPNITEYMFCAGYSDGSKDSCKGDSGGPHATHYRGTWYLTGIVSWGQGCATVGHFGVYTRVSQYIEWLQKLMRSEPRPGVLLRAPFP
# T1 sequence (P13726 33-295 partner): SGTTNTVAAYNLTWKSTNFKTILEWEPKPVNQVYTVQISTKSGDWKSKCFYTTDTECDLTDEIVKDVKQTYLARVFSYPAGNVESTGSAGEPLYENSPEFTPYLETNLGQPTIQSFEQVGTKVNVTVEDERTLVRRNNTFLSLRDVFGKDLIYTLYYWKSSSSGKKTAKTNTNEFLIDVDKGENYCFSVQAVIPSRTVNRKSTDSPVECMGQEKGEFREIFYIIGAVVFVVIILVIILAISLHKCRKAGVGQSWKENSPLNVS
row,Ki [µM],SMILES
1,14,"N=C(N)c1ccc(NC(=O)C(C(=O)OCc2ccccc2)c2ccccc2)cc1 (stereo not drawn) [Example 1, N-(4-Carbamimidoyl-Phenyl)-2-Phenyl-Malonamic Acid Benzyl Ester]"
2,0.198,"CC(NC(=O)C(C(=O)Nc1ccc(C(=N)N)cc1)c1ccccc1)c1ccc([N+](=O)[O-])cc1 (stereo not drawn) [Example 3, N-(4-Carbamimidoyl-Phenyl)-N′-[1-(4-Nitro-Phenyl)-Ethyl]-2-Phenyl-Malonamide, Formiate]"
3,3.82,N#CC(NC(=O)C(C(=O)Nc1ccc(C(=N)N)cc1)c1ccccc1)c1ccccc1 (stereo not drawn) [Example 6]
4,7.12,COc1ccc2c(c1)C[C@@H](NC(=O)C(C(=O)Nc1ccc(C(=N)N)cc1)c1ccccc1)CC2 (stereo partly drawn) [Example 8]
5,0.301,C[C@H](NC(=O)C(C(=O)Nc1ccc(C(=N)N)cc1)c1ccccc1)c1ccc(Br)cc1 (stereo partly drawn) [Example 12]
6,6.62,N=C(N)c1ccc(NC(=O)C(C(=O)NCc2c(Cl)cccc2Oc2ccccc2)c2ccccc2)cc1 (stereo not drawn) [Example 17]
7,0.157,C[C@H](NC(=O)C(C(=O)Nc1ccc(C(=N)N)cc1)c1ccccc1)c1cccc(Br)c1 (stereo partly drawn) [Example 23]
8,0.381,COc1ccc([C@H](C)NC(=O)C(C(=O)Nc2ccc(C(=N)N)cc2)c2ccccc2)cc1 (stereo partly drawn) [Example 26]
9,6.02,N=C(N)c1ccc(NC(=O)C(C(=O)NCc2ccc(-c3csnn3)cc2)c2ccccc2)cc1 (stereo not drawn) [Example 28]
10,3.01,N=C(N)c1ccc(NC(=O)C(C(=O)NCc2cccc([N+](=O)[O-])c2)c2ccccc2)cc1 (stereo not drawn) [Example 35]
11,17.4,COc1ccc(CNC(=O)C(C(=O)Nc2ccc(C(=N)N)cc2)c2ccccc2)cc1OC (stereo not drawn) [Example 38]
12,2.81,N=C(N)c1ccc(NC(=O)C(CCc2ccccc2)C(=O)NCc2ccccc2)cc1 (stereo not drawn) [Example 40]
13,17.1,C[C@H](NC(=O)C(CCc1ccccc1)C(=O)Nc1ccc(C(=N)N)cc1)c1ccc2ccccc2c1 (stereo partly drawn) [Example 42]
14,0.124,C[C@H](NC(=O)C(C(=O)Nc1ccc(C(=N)N)cc1)c1ccccc1)c1ccc2ccccc2c1 (stereo partly drawn) [Example 43]
15,0.376,C[C@H](NC(=O)CC(=O)Nc1ccc(C(=N)N)cc1)c1ccc2ccccc2c1 [Example 44]
